Reference: ChEMBL document CHEMBL4251615, “Discovery of anilino-furo[2,3-d]pyrimidine derivatives as dual inhibitors of EGFR/HER2 tyrosine kinase and their anticancer activity” (Eur J Med Chem, 2018)

Tested on: MDA-MB-435
Assay: Growth inhibition of human MDA-MB-435 cells assessed as cell growth at 10 uM incubated for 48 hrs by sulforhodamine B assay relative to control
Type: functional
Conditions: MDA-MB-435, 48 h, read-out: Activity

Compound | growth at 10 µM [%]
CCOC(=O)c1c(C)oc2ncnc(Nc3ccc(OCc4cccc(F)c4)cc3)c12 | 103

Tested on: NCI-H522
Assay: Growth inhibition of human NCI-H522 cells assessed as cell growth at 10 uM incubated for 48 hrs by sulforhodamine B assay relative to control
Type: functional
Conditions: NCI-H522, 48 h, read-out: Activity

Compound | growth at 10 µM [%]
CCOC(=O)c1c(C)oc2ncnc(Nc3ccc(OCc4cccc(F)c4)cc3)c12 | 85

Tested on: 786-0
Assay: Growth inhibition of human 786-0 cells assessed as cell growth at 10 uM incubated for 48 hrs by sulforhodamine B assay relative to control
Type: functional
Conditions: 786-0, 48 h, read-out: Activity

Compound | growth at 10 µM [%]
CCOC(=O)c1c(C)oc2ncnc(Nc3ccc(OCc4cccc(F)c4)cc3)c12 | 86.1

Tested on: MCF7
Assay: Growth inhibition of human MCF7 cells assessed as cell growth at 10 uM incubated for 48 hrs by sulforhodamine B assay relative to control
Type: functional
Conditions: MCF7, 48 h, read-out: Activity

Compound | growth at 10 µM [%]
CCOC(=O)c1c(C)oc2ncnc(Nc3ccc(OCc4cccc(F)c4)cc3)c12 | 99.3

Tested on: MOLT-4
Assay: Growth inhibition of human MOLT4 cells assessed as cell growth at 10 uM incubated for 48 hrs by sulforhodamine B assay relative to control
Type: functional
Conditions: MOLT-4, 48 h, read-out: Activity

Compound | growth at 10 µM [%]
CCOC(=O)c1c(C)oc2ncnc(Nc3ccc(OCc4cccc(F)c4)cc3)c12 | 107

Tested on: Malme-3M
Assay: Growth inhibition of human MALME-3M cells assessed as cell growth at 10 uM incubated for 48 hrs by sulforhodamine B assay relative to control
Type: functional
Conditions: read-out: Activity

Compound | growth at 10 µM [%]
CCOC(=O)c1c(C)oc2ncnc(Nc3ccc(OCc4cccc(F)c4)cc3)c12 | 125

Tested on: HCC 2998
Assay: Growth inhibition of human HCC2998 cells assessed as cell growth at 10 uM incubated for 48 hrs by sulforhodamine B assay relative to control
Type: functional
Conditions: HCC 2998, 48 h, read-out: Activity

Compound | growth at 10 µM [%]
CCOC(=O)c1c(C)oc2ncnc(Nc3ccc(OCc4cccc(F)c4)cc3)c12 | 108

Tested on: SK-MEL-2
Assay: Growth inhibition of human SK-MEL-2 cells assessed as cell growth at 10 uM incubated for 48 hrs by sulforhodamine B assay relative to control
Type: functional
Conditions: SK-MEL-2, 48 h, read-out: Activity

Compound | growth at 10 µM [%]
CCOC(=O)c1c(C)oc2ncnc(Nc3ccc(OCc4cccc(F)c4)cc3)c12 | 102

Tested on: HOP-92
Assay: Growth inhibition of human HOP92 cells assessed as cell growth at 10 uM incubated for 48 hrs by sulforhodamine B assay relative to control
Type: functional
Conditions: HOP-92, 48 h, read-out: Activity

Compound | growth at 10 µM [%]
CCOC(=O)c1c(C)oc2ncnc(Nc3ccc(OCc4cccc(F)c4)cc3)c12 | 104

Tested on: BT-549
Assay: Growth inhibition of human BT549 cells assessed as cell growth at 10 uM incubated for 48 hrs by sulforhodamine B assay relative to control
Type: functional
Conditions: BT-549, 48 h, read-out: Activity

Compound | growth at 10 µM [%]
CCOC(=O)c1c(C)oc2ncnc(Nc3ccc(OCc4cccc(F)c4)cc3)c12 | 100

Tested on: HT-29
Assay: Growth inhibition of human HT-29 cells assessed as cell growth at 10 uM incubated for 48 hrs by sulforhodamine B assay relative to control
Type: functional
Conditions: HT-29, 48 h, read-out: Activity

Compound | growth at 10 µM [%]
CCOC(=O)c1c(C)oc2ncnc(Nc3ccc(OCc4cccc(F)c4)cc3)c12 | 92.7

Tested on: HL-60(TB)
Assay: Growth inhibition of human HL-60(TB) cells assessed as cell growth at 10 uM incubated for 48 hrs by sulforhodamine B assay relative to control
Type: functional
Conditions: HL-60, 48 h, read-out: Activity

Compound | growth at 10 µM [%]
CCOC(=O)c1c(C)oc2ncnc(Nc3ccc(OCc4cccc(F)c4)cc3)c12 | 109

Tested on: MDA-MB-468
Assay: Growth inhibition of human MDA-MB-468 cells assessed as cell growth at 10 uM incubated for 48 hrs by sulforhodamine B assay relative to control
Type: functional
Conditions: MDA-MB-468, 48 h, read-out: Activity

Compound | growth at 10 µM [%]
CCOC(=O)c1c(C)oc2ncnc(Nc3ccc(OCc4cccc(F)c4)cc3)c12 | 90.6

Tested on: HCT-116
Assay: Growth inhibition of human HCT116 cells assessed as cell growth at 10 uM incubated for 48 hrs by sulforhodamine B assay relative to control
Type: functional
Conditions: HCT-116, 48 h, read-out: Activity

Compound | growth at 10 µM [%]
CCOC(=O)c1c(C)oc2ncnc(Nc3ccc(OCc4cccc(F)c4)cc3)c12 | 78.1

Tested on: OVCAR-4
Assay: Growth inhibition of human OVCAR4 cells assessed as cell growth at 10 uM incubated for 48 hrs by sulforhodamine B assay relative to control
Type: functional
Conditions: OVCAR-4, 48 h, read-out: Activity

Compound | growth at 10 µM [%]
CCOC(=O)c1c(C)oc2ncnc(Nc3ccc(OCc4cccc(F)c4)cc3)c12 | 102

Tested on: ACHN
Assay: Growth inhibition of human ACHN cells assessed as cell growth at 10 uM incubated for 48 hrs by sulforhodamine B assay relative to control
Type: functional
Conditions: read-out: Activity

Compound | growth at 10 µM [%]
CCOC(=O)c1c(C)oc2ncnc(Nc3ccc(OCc4cccc(F)c4)cc3)c12 | 62.1

Tested on: SNB-19
Assay: Growth inhibition of human SNB19 cells assessed as cell growth at 10 uM incubated for 48 hrs by sulforhodamine B assay relative to control
Type: functional
Conditions: SNB-19, 48 h, read-out: Activity

Compound | growth at 10 µM [%]
CCOC(=O)c1c(C)oc2ncnc(Nc3ccc(OCc4cccc(F)c4)cc3)c12 | 99.5

Tested on: NCI-H322M
Assay: Growth inhibition of human NCI-H322M cells assessed as cell growth at 10 uM incubated for 48 hrs by sulforhodamine B assay relative to control
Type: functional
Conditions: read-out: Activity

Compound | growth at 10 µM [%]
CCOC(=O)c1c(C)oc2ncnc(Nc3ccc(OCc4cccc(F)c4)cc3)c12 | 101

Tested on: SF-268
Assay: Growth inhibition of human SF268 cells assessed as cell growth at 10 uM incubated for 48 hrs by sulforhodamine B assay relative to control
Type: functional
Conditions: SF-268, 48 h, read-out: Activity

Compound | growth at 10 µM [%]
CCOC(=O)c1c(C)oc2ncnc(Nc3ccc(OCc4cccc(F)c4)cc3)c12 | 98.8

Tested on: NCI-H23
Assay: Growth inhibition of human NCI-H23 cells assessed as cell growth at 10 uM incubated for 48 hrs by sulforhodamine B assay relative to control
Type: functional
Conditions: NCI-H23, 48 h, read-out: Activity

Compound | growth at 10 µM [%]
CCOC(=O)c1c(C)oc2ncnc(Nc3ccc(OCc4cccc(F)c4)cc3)c12 | 91.8

Tested on: PC-3
Assay: Growth inhibition of human PC3 cells assessed as cell growth at 10 uM incubated for 48 hrs by sulforhodamine B assay relative to control
Type: functional
Conditions: PC-3, 48 h, read-out: Activity

Compound | growth at 10 µM [%]
CCOC(=O)c1c(C)oc2ncnc(Nc3ccc(OCc4cccc(F)c4)cc3)c12 | 75

Tested on: TK-10
Assay: Growth inhibition of human TK10 cells assessed as cell growth at 10 uM incubated for 48 hrs by sulforhodamine B assay relative to control
Type: functional
Conditions: TK-10, 48 h, read-out: Activity

Compound | growth at 10 µM [%]
CCOC(=O)c1c(C)oc2ncnc(Nc3ccc(OCc4cccc(F)c4)cc3)c12 | 82.7

Tested on: U-251
Assay: Growth inhibition of human U251 cells assessed as cell growth at 10 uM incubated for 48 hrs by sulforhodamine B assay relative to control
Type: functional
Conditions: U-251, 48 h, read-out: Activity

Compound | growth at 10 µM [%]
CCOC(=O)c1c(C)oc2ncnc(Nc3ccc(OCc4cccc(F)c4)cc3)c12 | 96.1

Tested on: A549
Assay: Growth inhibition of human A549/ATCC cells assessed as cell growth at 10 uM incubated for 48 hrs by sulforhodamine B assay relative to control
Type: functional
Conditions: A549, 48 h, read-out: Activity

Compound | growth at 10 µM [%]
CCOC(=O)c1c(C)oc2ncnc(Nc3ccc(OCc4cccc(F)c4)cc3)c12 | 76.4

Tested on: MDA-MB-231
Assay: Growth inhibition of human MDA-MB-231 cells assessed as cell growth at 10 uM incubated for 48 hrs by sulforhodamine B assay relative to control
Type: functional
Conditions: MDA-MB-231, 48 h, read-out: Activity

Compound | growth at 10 µM [%]
CCOC(=O)c1c(C)oc2ncnc(Nc3ccc(OCc4cccc(F)c4)cc3)c12 | 101

Tested on: SW-620
Assay: Growth inhibition of human SW620 cells assessed as cell growth at 10 uM incubated for 48 hrs by sulforhodamine B assay relative to control
Type: functional
Conditions: SW-620, 48 h, read-out: Activity

Compound | growth at 10 µM [%]
CCOC(=O)c1c(C)oc2ncnc(Nc3ccc(OCc4cccc(F)c4)cc3)c12 | 88.9

Tested on: SF-295
Assay: Growth inhibition of human SF295 cells assessed as cell growth at 10 uM incubated for 48 hrs by sulforhodamine B assay relative to control
Type: functional
Conditions: SF-295, 48 h, read-out: Activity

Compound | growth at 10 µM [%]
CCOC(=O)c1c(C)oc2ncnc(Nc3ccc(OCc4cccc(F)c4)cc3)c12 | 82.7

Tested on: OVCAR-3
Assay: Growth inhibition of human OVCAR3 cells assessed as cell growth at 10 uM incubated for 48 hrs by sulforhodamine B assay relative to control
Type: functional
Conditions: OVCAR-3, 48 h, read-out: Activity

Compound | growth at 10 µM [%]
CCOC(=O)c1c(C)oc2ncnc(Nc3ccc(OCc4cccc(F)c4)cc3)c12 | 104

Tested on: Hs-578T
Assay: Growth inhibition of human Hs 578T cells assessed as cell growth at 10 uM incubated for 48 hrs by sulforhodamine B assay relative to control
Type: functional
Conditions: read-out: Activity

Compound | growth at 10 µM [%]
CCOC(=O)c1c(C)oc2ncnc(Nc3ccc(OCc4cccc(F)c4)cc3)c12 | 87.7

Tested on: RXF 393
Assay: Growth inhibition of human RXF393 cells assessed as cell growth at 10 uM incubated for 48 hrs by sulforhodamine B assay relative to control
Type: functional
Conditions: RXF 393, 48 h, read-out: Activity

Compound | growth at 10 µM [%]
CCOC(=O)c1c(C)oc2ncnc(Nc3ccc(OCc4cccc(F)c4)cc3)c12 | 116

Tested on: SN12C
Assay: Growth inhibition of human SN12C cells assessed as cell growth at 10 uM incubated for 48 hrs by sulforhodamine B assay relative to control
Type: functional
Conditions: read-out: Activity

Compound | growth at 10 µM [%]
CCOC(=O)c1c(C)oc2ncnc(Nc3ccc(OCc4cccc(F)c4)cc3)c12 | 90.3

Tested on: RPMI-8226
Assay: Growth inhibition of human RPMI8226 cells assessed as cell growth at 10 uM incubated for 48 hrs by sulforhodamine B assay relative to control
Type: functional
Conditions: RPMI-8226, 48 h, read-out: Activity

Compound | growth at 10 µM [%]
CCOC(=O)c1c(C)oc2ncnc(Nc3ccc(OCc4cccc(F)c4)cc3)c12 | 104

Tested on: EKVX
Assay: Growth inhibition of human EKVX cells assessed as cell growth at 10 uM incubated for 48 hrs by sulforhodamine B assay relative to control
Type: functional
Conditions: read-out: Activity

Compound | growth at 10 µM [%]
CCOC(=O)c1c(C)oc2ncnc(Nc3ccc(OCc4cccc(F)c4)cc3)c12 | 94.4
